Structures are written as SMILES.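 These data come from cells grown in 96-well plates and exposed to compound for 48 hours at five concentrations. GI50 marks 50% less growth. Definition used: TGI = concentration required for complete inhibition of growth.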 Some results are limits rather than exact numbers.

Test systems include U251 CNS; SN12C renal; MCF7 breast; HOP-62 NSCLC; A498 renal; MOLT-4 leukemia; HT29 colon; SF-539 CNS; RPMI-8226 leukemia; NCI-H460 lung.
Holding throughout (experiment): DTP human tumour cell line panel, 48 h

For the compound `NCCOc1ccccn1`, the TGI in the experiment on U251 CNS, in the experiment with SN12C renal, in the experiment on MCF7 breast, with HOP-62 NSCLC, with A498 renal and in the experiment with MOLT-4 leukemia was above 100 µM in each case. Further, the TGI with HT29 colon, in the experiment with SF-539 CNS, with RPMI-8226 leukemia and in the experiment with NCI-H460 lung was above 100 µM throughout.

As for `CC(=O)Nc1ccc(C(=O)N[C@@H]2C(=O)N3[C@@H]2SC(C)(C)[C@@H]3C(=O)O)cn1`, the TGI in the experiment with U251 CNS, with SN12C renal, in the experiment on MCF7 breast, with HOP-62 NSCLC, in the experiment on A498 renal and in the experiment on MOLT-4 leukemia was above 100 µM each time. Moreover, the TGI in the experiment with HT29 colon, in the experiment on RPMI-8226 leukemia and in the experiment with NCI-H460 lung was above 100 µM each time.

As to `Cn1cccc1-c1cc(-c2ccc(Br)cc2)nc(N)c1C#N`, the GI50 in the experiment on U251 CNS was above 100 µM; in the experiment with SN12C renal, above 100 µM; in the experiment on MCF7 breast, above 100 µM; in the experiment with A498 renal it was 91.8 µM; with MOLT-4 leukemia, above 100 µM; with HT29 colon it was above 100 µM. For the same compound, the GI50 with SF-539 CNS was above 100 µM; in the experiment on RPMI-8226 leukemia, 78.7 µM; with NCI-H460 lung it was above 100 µM. Also, the concentration for total growth inhibition (TGI) in the experiment with U251 CNS, with SN12C renal, in the experiment on MCF7 breast, in the experiment on A498 renal, with MOLT-4 leukemia and with HT29 colon was above 100 µM each time. Besides, the total growth inhibition concentration (TGI) in the experiment on SF-539 CNS, in the experiment with RPMI-8226 leukemia and in the experiment on NCI-H460 lung was above 100 µM each time.

Take `COc1ccc(C2CC(c3cc(OC)c(OC)c(OC)c3)=NN2)cc1` (configuration not stated): the GI50 in the experiment on U251 CNS is 4.52 µM; with SN12C renal, 31.4 µM; in the experiment with MCF7 breast, 2.78 µM; with HOP-62 NSCLC, 28.7 µM; in the experiment on A498 renal it was 5.99 µM; with MOLT-4 leukemia, 4.76 µM. In addition, the GI50 in the experiment with HT29 colon was 3.91 µM; in the experiment on SF-539 CNS it was 5.88 µM; in the experiment with RPMI-8226 leukemia it was 3.23 µM; with NCI-H460 lung it was 3.47 µM. Further, the TGI was above 100 µM in the experiment with U251 CNS; above 100 µM with SN12C renal; 27.1 µM with MCF7 breast; 99.2 µM in the experiment on HOP-62 NSCLC; 47.6 µM in the experiment on A498 renal; 25 µM in the experiment on MOLT-4 leukemia. Further, the total growth inhibition concentration (TGI) in the experiment on HT29 colon was above 100 µM; with SF-539 CNS, 36.6 µM; in the experiment with RPMI-8226 leukemia, 18.6 µM; in the experiment with NCI-H460 lung it was 30.1 µM.

As to `CC(C)(C)c1ccc(-c2nnc(SCc3ccc(Cl)cc3)n2-c2cccc(C(F)(F)F)c2)cc1`, the TGI in the experiment with U251 CNS is above 100 µM; in the experiment with SN12C renal it was 14 µM; in the experiment with MCF7 breast, above 100 µM; in the experiment with HOP-62 NSCLC, above 100 µM; in the experiment on A498 renal it was above 100 µM; in the experiment with MOLT-4 leukemia, above 67.1 µM. For the same compound, the concentration for total growth inhibition (TGI) with HT29 colon was above 100 µM; with SF-539 CNS it was above 100 µM; in the experiment with RPMI-8226 leukemia it was 30.6 µM; in the experiment with NCI-H460 lung, above 100 µM.

As to `Cn1c(=O)c(Cc2ccc(F)cc2F)cc2cnc(NC3CCOCC3)nc21`, the GI50 in the experiment with U251 CNS was above 25 µM; in the experiment on SN12C renal, above 19.8 µM; with MCF7 breast it was above 25 µM; in the experiment on HOP-62 NSCLC, above 25 µM; with A498 renal, 12.3 µM; in the experiment with MOLT-4 leukemia, above 21.2 µM. In addition, the GI50 in the experiment on HT29 colon was above 25 µM; in the experiment on SF-539 CNS, above 25 µM; with RPMI-8226 leukemia it was above 23.6 µM; in the experiment with NCI-H460 lung it was above 25 µM. Moreover, the TGI in the experiment with U251 CNS, in the experiment with SN12C renal, in the experiment on MCF7 breast, with HOP-62 NSCLC, in the experiment on A498 renal and in the experiment with MOLT-4 leukemia was above 25 µM each time. Also, the TGI in the experiment on HT29 colon, in the experiment on SF-539 CNS, in the experiment with RPMI-8226 leukemia and in the experiment on NCI-H460 lung was above 25 µM each time.

Regarding `CCN1C(=O)N(c2c(F)c(OC)cc(OC)c2F)Cc2cnc3[nH]c(CN4CCOCC4)cc3c21`, the GI50 in the experiment with U251 CNS was 2.75 µM; in the experiment on SN12C renal, 2.78 µM; with MCF7 breast it was 8.04 µM; in the experiment with HOP-62 NSCLC it was 2.35 µM; with MOLT-4 leukemia, 2.56 µM; in the experiment on HT29 colon, 2.84 µM. In addition, the GI50 with SF-539 CNS is 1.01 µM; in the experiment on RPMI-8226 leukemia, 3.79 µM; in the experiment on NCI-H460 lung it was 1.86 µM. The total growth inhibition concentration (TGI) in the experiment with U251 CNS is above 100 µM; in the experiment on SN12C renal, 28.2 µM; with MCF7 breast, above 100 µM; in the experiment with HOP-62 NSCLC, above 100 µM; with MOLT-4 leukemia it was 59.9 µM; in the experiment on HT29 colon it was above 100 µM. Moreover, the TGI with SF-539 CNS is 13.7 µM; in the experiment with RPMI-8226 leukemia, above 100 µM; with NCI-H460 lung it was above 100 µM.

In the case of `NS(=O)(=O)c1ccc(-n2nc(-c3ccc(Cl)cc3)cc2C2=CC(=O)C=CC2=O)cc1`, the GI50 in the experiment with SN12C renal was 19.7 µM; with MCF7 breast it was 21.1 µM; in the experiment on A498 renal it was 22.8 µM; in the experiment on MOLT-4 leukemia, above 100 µM; in the experiment with SF-539 CNS, 21.5 µM; in the experiment with RPMI-8226 leukemia it was 6.86 µM. The GI50 with NCI-H460 lung is 24.3 µM. Also, the TGI is 36.5 µM with SN12C renal; 69.9 µM in the experiment with MCF7 breast; 70.2 µM in the experiment on A498 renal; above 100 µM with MOLT-4 leukemia; 45.4 µM in the experiment on SF-539 CNS; 33.4 µM with RPMI-8226 leukemia. In the experiment with NCI-H460 lung, this compound had a TGI of 57.4 µM.

For `O=Cc1ccc(C(F)(F)F)cc1.[C-]#[O+].[C-]#[O+].[C-]#[O+].[Cr]`, the GI50 in the experiment on U251 CNS is 26.8 µM; with SN12C renal, 22.6 µM; in the experiment on MCF7 breast, 24.7 µM; in the experiment on HOP-62 NSCLC, 46.6 µM; with A498 renal it was 21.4 µM; with MOLT-4 leukemia, 15.4 µM. Besides, the GI50 in the experiment on HT29 colon is 22.6 µM; with SF-539 CNS, 18.5 µM; in the experiment with NCI-H460 lung, 13.3 µM. Further, the TGI with U251 CNS is above 100 µM; with SN12C renal it was 82.1 µM; in the experiment on MCF7 breast, above 100 µM; in the experiment on HOP-62 NSCLC it was above 100 µM; with A498 renal, above 100 µM; with MOLT-4 leukemia it was 68 µM. Further, the total growth inhibition concentration (TGI) worked out at 54.3 µM with HT29 colon, 54.3 µM with SF-539 CNS and 40.3 µM with NCI-H460 lung.

A word on the TGI: it is the concentration giving total growth inhibition. In general, GI50 refers to the concentration that inhibits growth by half.

For the origin of these results see PubChem BioAssay (NCI).
